The values that follow are results of earlier work, collected in patent US11666634B2, “Methods and compositions for management of gastrointestinal disorders” (THE BOARD OF REGENTS OF THE UNIVERSITY OF TEXAS SYSTEM, priority 2019, dated 2023).

Each structure is given as a SMILES string.

`CC[C@H](C)[C@H](NC(=O)[C@@H]1CCCN1C(=O)CNC(=O)[C@H](Cc1ccccc1)NC(=O)[C@H](CC(N)=O)NC(=O)[C@H](CC(N)=O)NC(=O)[C@H](CO)NC(=O)[C@H](CO)NC(=O)[C@H](Cc1c[nH]cn1)NC(=O)[C@@H](NC(=O)[C@H](CC(C)C)NC(=O)[C@H](Cc1ccccc1)NC(=O)[C@H](CC(N)=O)NC(=O)[C@H](C)NC(=O)[C@H](CC(C)C)NC(=O)[C@H](CCCNC(=N)N)NC(=O)[C@H](CCC(N)=O)NC(=O)[C@@H](NC(=O)[C@H](C)NC(=O)[C@@H]1CSSC[C@H](NC(=O)[C@@H](N)CCCCN)C(=O)N[C@@H](CC(N)=O)C(=O)N[C@@H]([C@@H](C)O)C(=O)N[C@@H](C)C(=O)N[C@@H]([C@@H](C)O)C(=O)N1)[C@@H](C)O)C(C)C)C(=O)N[C@@H](CC(C)C)C(=O)N1CCC[C@H]1C(=O)N1CCC[C@H]1C(=O)N[C@H](C(=O)N[C@@H](CC(N)=O)C(=O)N[C@H](C(=O)NCC(=O)N[C@@H](CO)C(=O)N[C@@H](CC(N)=O)C(=O)N[C@H](C(=O)N[C@@H](Cc1ccc(O)cc1)C(N)=O)[C@@H](C)O)C(C)C)[C@@H](C)O` [Pramlintide, pramlintide]: the “gastric emptying half time” value (gastric emptying of a liquid, delayed from a half time of 30 minutes without pramlintide) was 110 min. The “rate of gastric emptying” value (result in words) is given as “significantly decreased”.
